From patent US20260297086A1, “CRYSTALLINE PROLYL HYDROXYLASE DOMAIN-CONTAINING PROTEIN (PHD) INHIBITOR AND USES THEREOF” (Insilico Medicine IP Limited, priority 2023, published 2026)

Key:
HIF1α (Caco2 cells) = assay: Caco2-HIF1α-HiBit assay; type: cell-based; settings: Homo sapiens, Caco-2
PHD2 = PHD2 (Homo sapiens, UniProt Q9GZT9); assay: PHD2 Enzymatic Assay (AlphaScreen); type: biochemical; settings: PHD2 enzyme, 30 min preincubation at RT
Experimental: Example 1: PHD2 Enzymatic Assay Procedure
Compound DMSO stock preparation: Compound 1 was reconstituted into 20 mM stock by DMSO.
Compound storage: Compound 1 in DMSO was stored at RT in a desiccator for short-term storage (up to 3 months).
• Reference Roxadustat (FG-4592) was 3-fold serial diluted from 400 μM for 10 doses in DMSO. • The compounds were 3-fold serial diluted from 400 μM for 10 doses in DMSO. • Prepared 200× positive control (400 μM, FG-4592) and 200× vehicle control (100% DMSO). • Centrifuged compound plates at 1000 rpm for 1 min.
• a) Transferred 40 nl compound dilutions into each well of assay plates using Echo 655; • b) Sealed the assay plate and centrifuge compound plates at 1000 rpm for 1 min. • c) Prepared and add 4 μL of the 2×PHD2 enzyme working solution to individual well of the assay plate. • d) Sealed the assay plate and centrifuge compound plates at 1000 rpm for 1 min. […]
• ALPHASCREEN signal (ALPcmpd) is calculated for each well • % Inhibition is calculated as follow:
[formula] • ALPpositive: The average ALP for the positive controls across the plate. • ALPvehicle: The average ALP for the negative controls across the plate. • Calculate IC50 and Plot effect-dose curve of compounds: • Calculated IC50 by fitting % inhibition values and log of compound concentrations to nonlinear regression (dose response−variable slope) with Graphpad 8.0. […]

PHD2, sequence (Q9GZT9 whole entry): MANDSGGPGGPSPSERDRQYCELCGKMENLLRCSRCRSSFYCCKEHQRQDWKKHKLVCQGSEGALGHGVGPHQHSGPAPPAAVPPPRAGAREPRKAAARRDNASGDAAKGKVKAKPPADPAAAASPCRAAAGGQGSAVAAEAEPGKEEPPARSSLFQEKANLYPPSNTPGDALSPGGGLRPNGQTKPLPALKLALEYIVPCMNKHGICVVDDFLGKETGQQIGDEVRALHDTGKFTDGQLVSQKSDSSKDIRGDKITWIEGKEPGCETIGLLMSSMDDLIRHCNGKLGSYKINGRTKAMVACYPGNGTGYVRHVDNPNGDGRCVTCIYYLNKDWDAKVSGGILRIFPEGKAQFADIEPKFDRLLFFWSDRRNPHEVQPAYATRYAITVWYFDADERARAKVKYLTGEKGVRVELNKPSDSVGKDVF

In the case of CC(C)(C)OC(=O)N1CCN(c2ccc3c(O)c(C(=O)NCc4ccc(C#N)nc4)ncc3n2)CC1 [Compound 1, tert-butyl 4-(6-(((6-cyanopyridin-3-yl)methyl)carbamoyl)-5-hydroxy-1,7-naphthyridin-2-yl)piperazine-1-carboxylate], the EC50 (HIF1α (Caco2 cells)) is reported as < 2.5 µM and the IC50 (PHD2) is reported as < 0.005 µM.
